Patent EP4563149A1, “LURBINECTEDIN, ECUBECTEDIN AND A RELATED COMPOUND FOR USE IN THE TREATMENT OF SKIN CANCERS” (Pharma Mar, S.A., priority 2023, dated 2025)
pIC50: −log10 of the molar value. Where two headings read alike, the source gives them in different places.

Experiments:
[1] = tested on: melanoma cells; assay: Apoptosis by flow cytometry (AnnexinV-APC); format: cell-based, human; details: IC50 concentrations, Annexin V-APC
Description: (§1) After 48h of incubation, cells were rinsed and incubated with AnnexinV-APC (BD Biosciences). Cell proliferation and apoptosis were detected on a BD LSRFortessaTM Flow Cytometer. Data were analyzed with FlowJo software. To define slow proliferating or apoptotic cells: it was considered that slow proliferating cells represented the 30% of cells with the highest concentration of CellTrace Violet signal in the DMSO control. […] For apoptotic cells, it was considered the 20% of cells with the highest signal of AnnexinV-APC in the DMSO control.

[2] = tested on: SKMEL-28; assay: Cell viability assay (PrestoBlue), 72h; details: Homo sapiens, SK-MEL-28, 72 h
Description: (§8) Cells were grown at 37°C in 5% CO2 (10% for Hermes 3A) and were regularly checked for mycoplasma contamination. […] Melanoma cell lines 501mel and SKmel28 were grown in RPMI w/o HEPES (Gibco, Invitrogen) supplemented with 10% FCS and gentamycin. Vemurafenib-resistant cells (501melVemuR and MM074VemuR) were additionally supplemented with 1.5 µM of vemurafenib. Melanoma IGR cell lines (IGR37 and IGR39) were grown in RPMI w/o HEPES (Gibco, Invitrogen) supplemented with 15% FCS and gentamycin.
(§9) To determine the IC50 (half maximal inhibitory concentration) of these cells to various inhibitors, cell viability assays were performed.
(§10) After 72h of treatment with different concentrations of the compounds, cells were treated with PrestoBlue reagent according to the manufacturer's instructions. The absorbance per well was measured with a Cellinsight CX5 microplate reader. Data were analyzed using Prism9 statistical software.

[3] = tested on: MM099; assay: Cell viability assay (PrestoBlue), 72h; details: Homo sapiens
Description: (§11) Cells were grown at 37°C in 5% CO2 (10% for Hermes 3A) and were regularly checked for mycoplasma contamination. […] Melanoma IGR cell lines (IGR37 and IGR39) were grown in RPMI w/o HEPES (Gibco, Invitrogen) supplemented with 15% FCS and gentamycin.
as §9, §10

[4] = tested on: melanoma cells; assay: Cell proliferation by CellTrace Violet flow cytometry; format: cell-based, human; details: IC50 concentrations, compared to DMSO
Description: as §1

[5] = tested on: MM047; assay: Cell viability assay (PrestoBlue), 72h; details: Homo sapiens
Description: as §11, §9, §10

[6] = tested on: melanoma cells 501mel; assay: Cell cycle analysis by flow cytometry (PI); format: cell-based, human; details: IC50 concentrations
Description: For cell cycle analysis, 2×10^6 cells were seeded in 6 well plates. […] After 2 washes with cold PBS, cells were incubated with RNAse A and PI for 1h in the dark, before being analyzed on a BD LSRFortessaTM Flow Cytometer. Data were analysed with FlowJo software.

[7] = tested on: MM074; assay: Cell viability assay (PrestoBlue), 72h; details: Homo sapiens
Description: as §8, §9, §10

[8] = tested on: LOX-IMVI melanoma xenografts; details: 1.2 mg/kg intravenous
Description: (§2) Female athymic nu/nu mice (Harlan Laboratories Models, S.L. Barcelona, Spain or Envigo, Spain) were utilized for all experiments. Animal were housed in individually ventilated cages Sealsafe® Plus, Techmplast S.P.A.), up to ten per cage on a 12-hour light-dark cycle at 21-23 °C and 40-60 % humidity. Mice were allowed free access to irradiated standard rodent diet (Tecklad 2914C) and sterilized water. Animals were acclimated for at least 5 days prior to tumor implantation with a tumor cell suspension.
(§3) The cell line used are: • 501mel • IGR-37 • SK-Mel-28 • WM-266-4 • LOX-IMVI • 501mel^Vemur
(§4) In xenograft studies with cell lines: • Tumour volume was calculated using the equation […], where a: length (longest diameter) and b: width (shortest diameter) were measured in mm by using digital caliper (Fowler Sylvac, S235PAT). Tumour dimensions and body weights were recorded 2-3 times per week starting from the first day of treatment. • When tumors reached ca. 150-250 mm^3, tumour bearing animals (N = 8-10/group) were randomly allocated into the treatment groups, based on body weight and tumour measurements by using NewLab Oncology Software (version 2.25.06.00). • Comparison between median tumour volume of treated and placebo groups was used for evaluation of the antitumoural efficacy. • Animals were euthanized when their tumours reached ca. 1,500 mm^3 and/or severe necrosis was seen.
(§5) Treatments producing >20 % lethality and/or 20% net body weight loss were considered toxic.
(§6) In these experiments, PM14 and Compound IA, as well as placebo, were intravenously administered once per week for 3 consecutive weeks, on days 0, 7 and 14, whenever it was possible.
Tumour volume evaluation in LOX-IMVI melanoma xenografts with PM14 and Compound IA and placebo.

[9] = tested on: 501mel melanoma xenografts; details: 1.2 mg/kg intravenous
Description: as §2, §3, §4, §5, §6
Table 4. Tumour volume evaluation in 501mel melanoma xenografts with PM14 and Compound IA and placebo.

[10] = tested on: 501 mel^Vemur cell line; details: 1.2 mg/kg intravenous
Description: as §2, §3, §4, §5, §6

[11] = tested on: 501mel, 501mel^VemuR and SKMEL28-derived xenografts; details: 24h after single IV dose of 1.2 mg/kg
Description: (§7) To investigate the effects of the aforementioned tested drugs in living organisms, it was decided to examine the impact of PM14 and Compound IA on melanoma cell-derived xenograft (CDXs) mouse models. Human 501mel, 501mel^VemuR or SKMEL28 melanoma cells were subcutaneously implanted into the right flank of NSG mice.

[12] = tested on: 501mel, 501mel^VemuR or SKMEL28 melanoma cells; details: weekly IV 1.2mg/kg
Description: as §7
Tumor volumes were monitored following weekly IV treatments of PM14 or Comp IA at a concentration of 1.2mg/kg. Treatments commenced (Day 0) when the tumors reached 150 mm^3 in female NSG mice aged 4 to 6 weeks (N=8/group).

In the case of COc1c(C)cc2c(c1O)[C@@H]1[C@@H]3[C@@H]4SC[C@]5(N[C@H](CO)Cc6c5[nH]c5ccccc65)C(=O)OC[C@@H](c5c6c(c(C)c(OC(C)=O)c54)OCO6)N3[C@@H](O)[C@H](C2)N1C [PM14, ecubectedin], the apoptosis [1] was “induction of apoptosis”, the pIC50 [2] was 8.88 and the pIC50 [3] was 8.85. For the same molecule, the melanoma cell proliferation [4] was “significant inhibition”, the pIC50 [5] was 9.02 and the cell cycle progression [6] was “notable blockade”. The pIC50 [7] was 8.94, the “Median Tumour Volume” value ([8]; days 0, 7 and 14, day 0) was 185 mm^3 and the “Median Tumour Volume” value ([8]; days 0, 7 and 14, day 2) was 173.7 mm^3. The “Median Tumour Volume” value ([8]; days 0, 7 and 14, day 4) was 103.2 mm^3, the “Median Tumour Volume” value ([8]; days 0, 7 and 14, day 7) was 73.8 mm^3 and the “Median Tumour Volume” value ([8]; days 0, 7 and 14, day 9) was 68.5 mm^3. For the same molecule, the “Median Tumour Volume” value ([8]; days 0, 7 and 14, day 11) was 51.2 mm^3, the “Median Tumour Volume” value ([8]; days 0, 7 and 14, day 14) was 37.5 mm^3 and the “Median Tumour Volume” value ([8]; days 0, 7 and 14, day 16) was 40.8 mm^3. The “Median Tumour Volume” value ([8]; days 0, 7 and 14, day 18) was 35.3 mm^3, the “Median Tumour Volume” value ([8]; days 0, 7 and 14, day 21) was 43.5 mm^3 and the “Median Tumour Volume” value ([8]; days 0, 7 and 14, day 23) was 55.5 mm^3. For the same molecule, the “Median Tumour Volume” value ([8]; days 0, 7 and 14, day 25) was 68.5 mm^3, the “Median Tumour Volume” value ([8]; days 0, 7 and 14, day 28) was 233.4 mm^3 and the “Median Tumour Volume” value ([8]; days 0, 7 and 14, day 30) was 547.3 mm^3. For the same molecule, the “Median Tumour Volume” value ([8]; days 0, 7 and 14, day 32) was 1,044 mm^3, the “Median Tumour Volume” value ([8]; days 0, 7 and 14, day 35) was 1,565 mm^3 and the “Median Tumour Volume” value ([8]; days 0, 7 and 14, day 37) was 1,610.4 mm^3. For the same molecule, the “Median Tumour Volume” value ([9]; days 0, 7 and 14, day 0) was 158.8 mm^3, the “Median Tumour Volume” value ([9]; days 0, 7 and 14, day 3) was 215.5 mm^3 and the “Median Tumour Volume” value ([9]; days 0, 7 and 14, day 5) was 252.3 mm^3. The “Median Tumour Volume” value ([9]; days 0, 7 and 14, day 7) was 372.7 mm^3, the “Median Tumour Volume” value ([9]; days 0, 7 and 14, day 10) was 503.6 mm^3 and the “Median Tumour Volume” value ([9]; days 0, 7 and 14, day 12) was 599.4 mm^3. For the same molecule, the “Median Tumour Volume” value ([9]; days 0, 7 and 14, day 14) was 797.2 mm^3, the “Median Tumour Volume” value ([9]; days 0, 7 and 14, day 17) was 950 mm^3 and the “Median Tumour Volume” value ([9]; days 0, 7 and 14, day 19) was 1,113.5 mm^3. The “Median Tumour Volume” value ([9]; days 0, 7 and 14, day 21) was 1,309.8 mm^3, the “Median Tumour Volume” value ([9]; days 0, 7 and 14, day 24) was 1,530.7 mm^3 and the “Median Tumour Volume” value ([10]; days 0, 7 and 14, day 0) was 147.9 mm^3. The “Median Tumour Volume” value ([10]; days 0, 7 and 14, day 2) was 225.2 mm^3, the “Median Tumour Volume” value ([10]; days 0, 7 and 14, day 4) was 248.4 mm^3 and the “Median Tumour Volume” value ([10]; days 0, 7 and 14, day 7) was 330.4 mm^3. The “Median Tumour Volume” value ([10]; days 0, 7 and 14, day 9) was 361 mm^3, the “Median Tumour Volume” value ([10]; days 0, 7 and 14, day 11) was 389.7 mm^3 and the “Median Tumour Volume” value ([10]; days 0, 7 and 14, day 14) was 407.1 mm^3. The “Median Tumour Volume” value ([10]; days 0, 7 and 14, day 16) was 436.4 mm^3, the “Median Tumour Volume” value ([10]; days 0, 7 and 14, day 18) was 502 mm^3 and the “Median Tumour Volume” value ([10]; days 0, 7 and 14, day 21) was 555.5 mm^3. For the same molecule, the “Median Tumour Volume” value ([10]; days 0, 7 and 14, day 23) was 674.2 mm^3, the “Median Tumour Volume” value ([10]; days 0, 7 and 14, day 25) was 757.7 mm^3 and the “Median Tumour Volume” value ([10]; days 0, 7 and 14, day 28) was 839.8 mm^3. For the same molecule, the “Median Tumour Volume” value ([10]; days 0, 7 and 14, day 30) was 882.9 mm^3, the “Median Tumour Volume” value ([10]; days 0, 7 and 14, day 35) was 863.3 mm^3 and the “Median Tumour Volume” value ([10]; days 0, 7 and 14, day 37) was 871.8 mm^3. The “Median Tumour Volume” value ([10]; days 0, 7 and 14, day 39) was 948.6 mm^3, the “Median Tumour Volume” value ([10]; days 0, 7 and 14, day 42) was 1020 mm^3 and the “Median Tumour Volume” value ([10]; days 0, 7 and 14, day 44) was 1,295.1 mm^3. For the same molecule, the “Median Tumour Volume” value ([10]; days 0, 7 and 14, day 46) was 1,582.2 mm^3, the “fraction of apoptotic cells (cleaved caspase-3)” value [11] was “significant increase” and the “antitumor activity (tumor volumes) versus placebo-treated group” value ([12]; N=8/group) was “statistically significant difference”. For the same molecule, the overall survival ([12]; three CDX models) was “significant increase”.
